{"source": "patent US9527885B2", "about": "“Hepatitis C virus inhibitors” (BRISTOL-MYERS SQUIBB COMPANY, priority 2011, dated 2016)", "key": {"[1]": {"tested_on": "HCV genotype 1a (H77 strain) replicon in HUH-7 cells", "assay": "HCV replicon luciferase reporter assay, genotype 1a", "assay_type": "cell-based", "details": "Hepatitis C virus, Huh-7, 72 h, HCV genotype 1a replicon luciferase, 3 days incubation, class symbols, read-out: LE_1a (EC50, range)", "source_text": "(§1) An HCV replicon whole cell system was established as described by Lohmann V, Korner F, Koch J, Herian U, Theilmann L, Bartenschlager R., Science 285(5424):110-3 (1999) and modified to introduce a luciferase reporter, as first described by Krieger et al (Krieger N, Lohmann V, and Bartenschlager R, J. Virol. 75(10):4614-4624 (2001)). CDNA encoding a humanized form of the Renilla luciferase gene and a linker sequence fused directly to the 3′-end of the luciferase gene were introduced into the replicon construct using an Asc1 restriction site located in core, directly upstream of the neomycin marker gene. The adaptive mutation at position 1179 (serine to isoleucine) was also introduced (Blight K J, Kolykhalov, A A, Rice, C M, Science 290(5498):1972-1974). A stable cell line constitutively expressing this HCV replicon construct was generated by first linearizing plasmid DNAs with ScaI. RNA transcripts were synthesized in vitro using the T7 MegaScript transcription kit (Ambion, Austin, Tex.) according to manufacturer's directions. In vitro transcripts of the cDNA were transfected into the human hepatoma cell line, HUH-7. […] Resulting cell lines were characterized for positive and negative strand RNA production and protein production over time.\nA stable HCV replicon luciferase reporter cell line representing the genotype 1a H77 strain (Yanagi M, Purcell R H, Emerson S U, et al. Transcripts from a single full-length cDNA clone of hepatitis C virus are infectious when directly transfected into the liver of a chimpanzee. Proc Natl Acad Sci USA 1997; 94(16):8738-8743) was generated as described previously for the genotype 1b (Con1) replicon luciferase cell line. The replicon construct was modified by introducing mutations were introduced into the genes encoding the NS3 helicase domain (proline replaced by leucine at position 1496) and NS5A (serine to isoleucine at position 2204) to improve replication in cell culture.\n(§2) HCV replicon luciferase assays were developed to monitor the inhibitory effects of compounds described in the disclosure on HCV genotypes 1a and 1b viral replication. HUH-7 cells, constitutively expressing the HCV replicon, were grown in Dulbecco's Modified Eagle Media (DMEM) (Gibco-BRL) containing 10% Fetal calf serum (FCS) (Sigma) and 1 mg/mL G418 (Gibco-BRL). Compounds were serially diluted 3 folds in DMSO for a twenty-point titration and subsequently transferred to sterile 384-well tissue-culture treated plates (Corning cat #3571). The plates were then seeded with 50 μL of cells at a density of 3.0×10^3 cells/well in DMEM containing 4% FCS (final DMSO concentration at 0.5%). After 3 days incubation at 37° C., cells were analyzed for Renilla Luciferase activity using the EnduRen as substrate (Promega cat #E6485). The EnduRen substrate was diluted in DMEM and then added to the plates to a final concentration of 7.5 μM. The plates were incubated for 2 hrs at 37° C. and then read immediately for 30 seconds with Viewlux Imager (PerkinElmer) using a luminescence program. To assess cytotoxicity of compounds, CC50 values were generated by multiplexing the EnduRen-containing plates with Cell Titer-Blue (Promega, cat # G8082). Cell-Titer Blue (3 μL) was added to each well and incubated for 8 hrs at 37° C. The fluorescence signal from each well was read, with an excitation wavelength at 525/10 nm and an emission wavelength of 598/10 nm, using the Viewlux Imager.\n(§3) The EC50 values for compounds were calculated by using a four-parameter logistic equation: y=A+((B−A)/(1+((C/x)^D))), where A and B denotes minimal and maximal % inhibition, respectively, C is the EC50, D is the hill slope and x represents compound concentration."}, "[2]": {"tested_on": "HCV genotype 1b (Con1) replicon in HUH-7 cells", "assay": "HCV replicon luciferase reporter assay, genotype 1b", "assay_type": "cell-based", "details": "Hepatitis C virus, 72 h, HCV genotype 1b replicon luciferase, 3 days incubation, class symbols, read-out: LE_1b (EC50, range)", "source_text": "as §1, with “time. […]” for “time.”\nas §2, §3"}}, "data": [{"smiles": "CC[C@@H]1C[C@H](C)CC/C=C\\[C@@H]2C[C@@]2(C(=O)NS(=O)(=O)C2(C)CC2)NC(=O)[C@@H]2C[C@@H](Oc3nccc4cc(OC)c(F)cc34)CN2C(=O)[C@H]1NC(=O)OC(C)(C)C(F)(F)F", "note": "[Compound 4176, 1,1,1-trifluoro-2-methylpropan-2-yl (2R,6S,7R,9R,13aS,14aR,16aS,Z)-7-ethyl-2-(7-fluoro-6-methoxyisoquinolin-1-yloxy)-9-methyl-14a-(1-methylcyclopropylsulfonylcarbamoyl)-5,16-dioxo-1,2,3,5,6,7,8,9,10,11,13a,14,14a,15,16,16a-hexadecahydrocyclopropa[e]pyrrolo[1,2-a][1,4]diazacyclopentadecin-6-ylcarbamate]", "values": [{"measurement": "EC50", "setting": "[1]", "result": "< 5.46", "unit": "nM"}, {"measurement": "EC50", "setting": "[2]", "result": "< 5.46", "unit": "nM"}]}, {"smiles": "CC[C@@H]1C[C@H](C)CC/C=C\\[C@@H]2C[C@@]2(C(=O)NS(=O)(=O)C2(C)CC2)NC(=O)[C@@H]2C[C@@H](Oc3ncc(OC)c4ccc(F)cc34)CN2C(=O)[C@H]1NC(=O)OC(C)(C)C(F)(F)F", "note": "[Compound 4186, 1,1,1-trifluoro-2-methylpropan-2-yl (2R,6S,7R,9R,13aS,14aR,16aS,Z)-7-ethyl-2-(7-fluoro-4-methoxyisoquinolin-1-yloxy)-9-methyl-14a-(1-methylcyclopropylsulfonylcarbamoyl)-5,16-dioxo-1,2,3,5,6,7,8,9,10,11,13a,14,14a,15,16,16a-hexadecahydrocyclopropa[e]pyrrolo[1,2-a][1,4]diazacyclopentadecin-6-ylcarbamate]", "values": [{"measurement": "EC50", "setting": "[1]", "result": "< 5.46", "unit": "nM"}, {"measurement": "EC50", "setting": "[2]", "result": "< 5.46", "unit": "nM"}]}, {"smiles": "CC[C@@H]1C[C@H](C)CC/C=C\\[C@@H]2C[C@@]2(C(=O)NS(=O)(=O)C2CC2)NC(=O)[C@@H]2C[C@@H](Oc3cnc4ccc(OC)cc4n3)CN2C(=O)[C@H]1NC(=O)OC(C)(C)C(F)(F)F", "note": "[Compound 4194, 1,1,1-trifluoro-2-methylpropan-2-yl (2R,6S,7R,9R,13aS,14aR,16aS,Z)-14a-(cyclopropylsulfonylcarbamoyl)-7-ethyl-2-(7-methoxyquinoxalin-2-yloxy)-9-methyl-5,16-dioxo-1,2,3,5,6,7,8,9,10,11,13a,14,14a,15,16,16a-hexadecahydrocyclopropa[e]pyrrolo[1,2-a][1,4]diazacyclopentadecin-6-ylcarbamate]", "values": [{"measurement": "EC50", "setting": "[1]", "result": "< 5.46", "unit": "nM"}, {"measurement": "EC50", "setting": "[2]", "result": "< 5.46", "unit": "nM"}]}, {"smiles": "COc1ccc2c(O[C@@H]3C[C@H]4C(=O)N[C@]5(C(=O)NS(=O)(=O)C6(CF)CC6)C[C@H]5/C=C\\CC[C@@H](C)C[C@@H](C)[C@H](NC(=O)OC(C)(C)C(F)(F)F)C(=O)N4C3)ccnc2c1", "note": "[Compound 4198, 1,1,1-trifluoro-2-methylpropan-2-yl (2R,6S,7R,9R,13aS,14aR,16aS,Z)-14a-(1-(fluoromethyl)cyclopropylsulfonylcarbamoyl)-2-(7-methoxyquinolin-4-yloxy)-7,9-dimethyl-5,16-dioxo-1,2,3,5,6,7,8,9,10,11,13a,14,14a,15,16,16a-hexadecahydrocyclopropa[e]pyrrolo[1,2-a][1,4]diazacyclopentadecin-6-ylcarbamate]", "values": [{"measurement": "EC50", "setting": "[1]", "result": "4.82 to 103", "unit": "nM"}, {"measurement": "EC50", "setting": "[2]", "result": "< 5.46", "unit": "nM"}]}, {"smiles": "COc1ccc2c(O[C@@H]3C[C@H]4C(=O)N[C@]5(C(=O)NS(=O)(=O)C6(CF)CC6)C[C@H]5/C=C\\CC[C@@H](C)C[C@@H](C)[C@H](NC(=O)OC(C)(C)C(F)(F)F)C(=O)N4C3)cc(Cl)nc2c1", "note": "[Compound 4199, 1,1,1-trifluoro-2-methylpropan-2-yl (2R,6S,7R,9R,13aS,14aR,16aS,Z)-2-(2-chloro-7-methoxyquinolin-4-yloxy)-14a-(1-(fluoromethyl)cyclopropylsulfonylcarbamoyl)-7,9-dimethyl-5,16-dioxo-1,2,3,5,6,7,8,9,10,11,13a,14,14a,15,16,16a-hexadecahydrocyclopropa[e]pyrrolo[1,2-a][1,4]diazacyclopentadecin-6-ylcarbamate]", "values": [{"measurement": "EC50", "setting": "[1]", "result": "< 5.46", "unit": "nM"}, {"measurement": "EC50", "setting": "[2]", "result": "< 5.46", "unit": "nM"}]}]}
